Results published in patent US11896673B2, “Glucose responsive insulin delivery compositions and methods” (NORTH CAROLINA STATE UNIVERSITY, priority 2016, dated 2024).

What was measured:
[1] = system: STZ-induced diabetic mice; assay: Intraperitoneal glucose tolerance test (IPGTT) 1.5 h after administration; assay type: in vivo; settings: IPGTT 1.5 hours after i.v. administration
Experimental: In Vivo Studies Using STZ-Induced Diabetic Mice. STZ-induced male C57B6 diabetic mice were purchased from Jackson Labs (USA) and used under protocols approved by the Institutional Animal Care and Use Committee at North Carolina State University. For in vivo circulating behavior of insulin-RBC, mRBCs were coupled with FITC after loading with insulin, 3 mice were injected i.v. with autologous insulin−mRBCs. Then ˜3 μL of blood was extracted from the tail vein at different time points and then dispersed in 0.5 mL of PBS with anticoagulants. Flow cytometry measurement was applied to determine the percentages of insulin−mRBCs (positive in FITC) in the blood samples. […] The BG level was measured from tail vein blood samples (approximately 3 μL) of mice using the Clarity GL2Plus glucose meter (Clarity Diagnostics) at different time points. […] Plasma insulin concentrations were determined using the human insulin ELISA kit (Calbiotech, USA). […] To quantitate the glucose response to the various insulin formulations (Yu J, et al. Proc. Natl. Acad. Sci. U.S.A. 112, 8260-8265 (2015); Chou DH-C, et al. Proc. Natl. Acad. Sci. U.S.A. 112, 2401-2406 (2015)), the area under the curve was calculated for each group between 90 and 200 min. […] Furthermore, plasma insulin levels of diabetic mice were monitored over time by ELISA after IPGTT (FIG. 8D).

healthy mice = assay: Hypoglycemia study in healthy mice under normoglycemic conditions; settings: mouse, in vivo
Experimental: FIG. 8F is a bar graph showing the quantification of the hypoglycemia index, calculated from the difference between the initial and nadir BG readings divided by the time at which nadir was reached. The error bars are based on the SD of five mice per group. (P values: *P<0.05) Next, the potential for insulin−mRBCs to induce hypoglycemia was studied in healthy mice under normoglycemic conditions (FIG. 8E). […] The corresponding hypoglycemia index was calculated to assess the risk of hypoglycemia (Yu J, et al. Proc. Natl. Acad. Sci. U.S.A. 112, 8260-8265 (2015); Chou DH-C, et al. Proc. Natl. Acad. Sci. U.S.A. 112, 2401-2406 (2015)).

[2] = system: STZ-induced type 1 diabetic mice; assay: In vivo bioactivity comparison of native insulin and Glu-Insulin; settings: same insulin concentration 5 mg/kg
Description: Glucose was conjugated to insulin via a bifunctional maleimide linker (FIG. 2). Glu-Insulin was clearly identified by the sodium dodecyl sulfate polyacrylamide gel electrophoresis (SDS-PAGE) and matrix-assisted laser desorption/ionization mass spectrometry (MALDI MS) (FIG. 3A-B). As calculated by MALDI-MS, two glucose molecules are conjugated to each insulin molecule (feed molar ratio of glucose to insulin: 100:1). […] In short, the modification of insulin with glucose has a statistically insignificant impact on bioactivity relative to unmodified insulin.

mRBCs [3] = assay: Binding/loading of Glu-Insulin to mouse RBCs (confocal, flow cytometry, ELISA); settings: incubated overnight, confocal fluorescence microscopy
Experimental: Preparation of insulin loaded RBCs. Whole blood was collected from the B16 mice or from a human volunteer (The study protocol was approved by the Institutional Review Board at North Carolina State University). RBCs were separated from the whole blood by centrifugation (1000 g, 10 min) and washed thrice with cold PBS (300 mOsm, pH=8.0) to remove the glucose intracellularly. To load the insulin to RBC membrane, Glu-Insulin (0.5 mg/ml) was incubated with […] RBCs (1×10^8) under gentle stirring at 4° C. overnight. RBCs were washed thrice with cold PBS (300 mOsm, pH 8) to remove the unconjugated Glu-Insulin. Bound insulin was determined by ELISA assay.

[4] = system: STZ-induced diabetic mice; assay: Blood glucose levels in STZ-induced diabetic mice after treatment; assay type: in vivo; settings: i.v., 5 mg/kg insulin
Experimental: In Vivo Studies Using STZ-Induced Diabetic Mice. STZ-induced male C57B6 diabetic mice were purchased from Jackson Labs (USA) and used under protocols approved by the Institutional Animal Care and Use Committee at North Carolina State University. For in vivo circulating behavior of insulin-RBC, mRBCs were coupled with FITC after loading with insulin, 3 mice were injected i.v. with autologous insulin−mRBCs. Then ˜3 μL of blood was extracted from the tail vein at different time points and then dispersed in 0.5 mL of PBS with anticoagulants. Flow cytometry measurement was applied to determine the percentages of insulin−mRBCs (positive in FITC) in the blood samples. […] The BG level was measured from tail vein blood samples (approximately 3 μL) of mice using the Clarity GL2Plus glucose meter (Clarity Diagnostics) at different time points. […] Plasma insulin concentrations were determined using the human insulin ELISA kit (Calbiotech, USA). The efficacy of insulin−mRBCs for treatment of hyperglycemia in STZ-induced type 1 diabetic mice (Like, A A, et al. Science 193, 415-417 (1976)) was also assessed. […] The BG levels of treated mice were then monitored over time.

mRBCs [5] = system: mRBCs
Experimental: The mRBCs were incubated with Glu-Insulin overnight and imaged using the confocal fluorescence microscope to determine whether Glu-Insulin can bind to mRBCs via the specific glucose-GLUT binding.

GLUT1 = target: T1, GLUT1 (Rattus norvegicus, UniProt P11167); assay: Binding of free GLUT1 protein and Glu-Insulin in vitro (centrifugal filter); settings: overnight incubation, MWCO=10 kDa filter
T1 construct: His6 (pET-28a vector-encoded) (N); T7 tag (pET-28a vector-encoded, upstream of BamHI site) (N); made in house; host or cells: E. coli Rosetta (DE3) pLysS
T1 sequence (P11167 1-492): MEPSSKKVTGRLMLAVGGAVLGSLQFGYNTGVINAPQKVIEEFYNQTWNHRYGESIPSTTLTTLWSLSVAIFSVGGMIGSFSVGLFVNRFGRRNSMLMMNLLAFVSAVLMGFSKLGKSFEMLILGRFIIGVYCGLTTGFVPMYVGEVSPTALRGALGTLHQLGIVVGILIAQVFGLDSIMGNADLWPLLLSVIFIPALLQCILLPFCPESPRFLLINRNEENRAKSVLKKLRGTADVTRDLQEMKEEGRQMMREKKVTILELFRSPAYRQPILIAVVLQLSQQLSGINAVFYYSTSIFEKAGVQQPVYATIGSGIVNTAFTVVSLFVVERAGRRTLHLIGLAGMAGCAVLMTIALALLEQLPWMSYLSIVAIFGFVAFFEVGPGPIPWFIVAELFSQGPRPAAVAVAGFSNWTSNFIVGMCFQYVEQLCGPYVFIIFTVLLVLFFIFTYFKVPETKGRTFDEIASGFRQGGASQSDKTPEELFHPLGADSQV
Experimental: Glucose modified insulin was mixed with GLUT1 protein at a molar ratio of 1.2:1 for 12 hours at 4° C. Free Glu-insulin were removed by the centrifugal filter device (MWCO=10 kDa). The obtained Glu-Insulin was stored at 4° C. until use. We first examined the specific binding affinity of free GLUT1 proteins and Glu-Insulin in vitro. We incubated the GLUT1 with Glu-Insulin overnight, free Glu-Insulin was removed by centrifugal filter device (MWCO=10 kDa).

Glu-Insulin: human recombinant insulin conjugated to two glucose (glucosamine) molecules via a bifunctional maleimide (Sulfo-SMCC/thiol) linker
BG response after IPGTT [1]: only exhibited a fleeting response
BG levels in healthy mice (healthy mice): significantly decreased BG levels compared to insulin−mRBCs treated mice
bioactivity profile relative to native insulin [2]: do not display any significant difference in their bioactivity profiles
binding of Glu-Insulin to mRBCs (mRBCs [3]): bound to the mRBCs
BG level recovered within 24 h [4]: ~500 mg/dL
BG level within 1 h [4]: < 70 mg/dL
damage to mRBCs by insulin binding (annexin V) (mRBCs [5]): does not cause significant damage to mRBCs
binding of Glu-Insulin to free GLUT1 protein (GLUT1): insulin signals could be detected in supernatant if co-incubated with GLUT1 proteins
